Earlier results in patent publication US20220168301A1, “METHODS FOR TREATING SYMPTOMATIC ORTHOSTATIC HYPOTENSION” (Cerecor Inc, priority 2019, published 2022).

Tested on: patients with nOH
Details: Phase III clinical trials; cited from earlier work

N[C@H](C(=O)O)[C@H](O)c1ccc(O)c(O)c1 [droxidopa, L-threo-3,4-dihydroxyphenyl-serine]
Standing systolic blood pressure: increase in standing systolic blood pressure | Symptoms of nOH (dizziness, lightheadedness or feeling about to faint): significant improvement in symptoms of nOH
